Source: ChEMBL document CHEMBL1208699, “BACE-1 hydroxyethylamine inhibitors using novel edge-to-face interaction with Arg-296” (Bioorg Med Chem Lett, 2010)

Key:
Assay type in all cases: ADME, organism-based
Design in all cases: dose 1 mg/kg, route intravenous
[1] = Volume of distribution at steady state in rat at 1 mg/kg, iv; conditions: in vivo, read-out: Vdss
[2] = Half life in rat at 1 mg/kg, iv; conditions: in vivo
[3] = Blood clearance in rat at 1 mg/kg, iv; conditions: whole blood

## CS(=O)(=O)N(c1ccccc1)c1cc(C(=O)N[C@@H](Cc2ccccc2)[C@H](O)CNCc2cccc(C(F)(F)F)c2)cc(C2CCCC2)c1
[1]
  Vd: 9.3 L/kg
[2]
  half-life: 42 min
[3]
  clearance: 76 mL/min/kg
